Measured values published in US20030032580A1, “Use of agonists or antagonists of the 5-HT7 receptor to treat disorders of the bladder” (Synaptic Pharmaceutical Corporation, priority 1999, published 2003).

Assays:
5-HT1E = 5-HT1E (Homo sapiens, UniProt P28566); conditions: Adham et al., 1993; cited from earlier work
human 5-HT7 receptor = molecular target: T1, human 5-HT7 receptor (Homo sapiens, UniProt P34969); assay: Radioligand binding at cloned 5-HT7 receptor, this study ([3H]serotonin competition); conditions: reference: this study, read-out: pK1 (converted)
T1 construct: host or cells: LM(tk-) mouse fibroblasts, clone L-5HT-4B
T1 sequence (P34969 1-445 isoform P34969-2): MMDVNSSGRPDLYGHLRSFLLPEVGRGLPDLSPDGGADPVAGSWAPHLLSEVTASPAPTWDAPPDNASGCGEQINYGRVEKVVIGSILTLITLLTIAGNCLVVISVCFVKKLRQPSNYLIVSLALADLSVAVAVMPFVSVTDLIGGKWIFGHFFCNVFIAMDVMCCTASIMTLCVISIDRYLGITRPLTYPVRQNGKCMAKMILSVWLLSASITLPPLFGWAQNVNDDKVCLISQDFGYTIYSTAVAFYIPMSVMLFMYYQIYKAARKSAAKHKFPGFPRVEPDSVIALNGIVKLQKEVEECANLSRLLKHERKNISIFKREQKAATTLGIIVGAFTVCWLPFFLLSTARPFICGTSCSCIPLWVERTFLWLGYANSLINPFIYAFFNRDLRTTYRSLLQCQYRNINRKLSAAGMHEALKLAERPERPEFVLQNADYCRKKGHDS
Experimental: The binding of a test compound to a receptor of interest was generally evaluated by competitive binding assays using membrane preparations derived from cells which expressed the receptor. First, conditions were determined which allowed measurement of the specific binding of a compound known to bind to the receptor. Then, the binding of the known compound to the receptor in membrane preparations was evaluated in the presence of several different concentrations of the test compound.
Human Serotonin Receptors. 5-HT1Dα, 5-HT1Dβ, 5-HT1E, 5-HT1F, and 5-HT7 Receptors: The cell lysates of LM(tk-) clonal cell line stably transfected with the genes encoding each of these 5-HT receptor-subtypes were prepared as described above. The cell line for the 5-HT1Dα receptor, designated as Ltk-8-30-84, was deposited on Apr. 17, 1990, and accorded ATCC Accession No. CRL 10421. The cell for the 5-HT1Dβ receptor, designated as Ltk-11, was deposited on Apr. 17, 1990, and accorded ATCC Accession No. CRL 10422. The cell line for the […] receptor, designated 5-HT1E-7, was deposited on Nov. 6, 1991, and accorded ATCC Accession No. CRL 10913. The cell line for the 5-HT1F receptor, designated L-5-HT1F, was deposited on Dec. 27, 1991, and accorded ATCC Accession No. ATCC 10957. […] Nonspecific binding was determined in the presence of 10 μM serotonin. […]

[1] = molecular target: cloned rat 5-HT2B receptor (Rattus norvegicus, UniProt P30994); conditions: cited from earlier work
Sequence of cloned rat 5-HT2B receptor (P30994 whole entry): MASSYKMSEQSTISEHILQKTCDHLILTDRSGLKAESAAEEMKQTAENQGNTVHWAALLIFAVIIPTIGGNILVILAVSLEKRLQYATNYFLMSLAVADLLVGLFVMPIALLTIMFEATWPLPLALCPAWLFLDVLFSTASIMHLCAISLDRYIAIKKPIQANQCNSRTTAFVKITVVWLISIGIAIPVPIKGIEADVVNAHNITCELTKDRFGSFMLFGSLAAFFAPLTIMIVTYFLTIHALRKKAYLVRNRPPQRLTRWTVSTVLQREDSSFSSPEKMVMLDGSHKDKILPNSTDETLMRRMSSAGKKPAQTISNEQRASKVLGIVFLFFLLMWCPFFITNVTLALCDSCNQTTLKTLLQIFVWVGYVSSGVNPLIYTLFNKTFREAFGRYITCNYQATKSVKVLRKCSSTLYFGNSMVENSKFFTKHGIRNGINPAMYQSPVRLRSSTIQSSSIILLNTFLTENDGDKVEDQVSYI

[2] = molecular target: T2, 5-HT7 receptor (first phase of the concentration-effect curve to 5-CT in the rat bladder) (Rattus norvegicus, UniProt P32305); assay: Electrically stimulated rat bladder strips: first (high potency) phase of the concentration-effect curve to 5-CT; assay type: cell-based; conditions: bladder pKB versus published value
T2 construct: from tissue; host or cells: rat urinary bladder detrusor strips
T2 sequence (P32305 whole entry): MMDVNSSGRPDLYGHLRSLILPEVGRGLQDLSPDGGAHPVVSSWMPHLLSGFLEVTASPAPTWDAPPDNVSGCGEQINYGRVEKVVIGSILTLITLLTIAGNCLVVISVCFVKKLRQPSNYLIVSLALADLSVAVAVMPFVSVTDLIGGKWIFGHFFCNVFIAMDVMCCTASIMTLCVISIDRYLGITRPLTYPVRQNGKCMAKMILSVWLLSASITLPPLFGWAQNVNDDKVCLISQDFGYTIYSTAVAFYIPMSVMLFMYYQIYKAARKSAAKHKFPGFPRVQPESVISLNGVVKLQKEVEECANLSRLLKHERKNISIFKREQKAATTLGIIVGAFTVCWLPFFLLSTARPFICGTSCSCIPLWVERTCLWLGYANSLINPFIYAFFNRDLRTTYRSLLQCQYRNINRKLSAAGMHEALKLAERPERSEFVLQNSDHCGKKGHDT

[3] = molecular target: T3, 5-HT2B receptor (second phase of the concentration-effect curve to 5-CT in the rat bladder) (Rattus norvegicus, UniProt P30994); assay: Electrically stimulated rat bladder strips: second (low potency) phase of the concentration-effect curve to 5-CT; assay type: cell-based
T3 construct: from tissue; host or cells: rat urinary bladder detrusor strips
T3 sequence (P30994 whole entry): as the sequence (P30994 whole entry) above

Sequence of 5-HT1E (P28566 whole entry): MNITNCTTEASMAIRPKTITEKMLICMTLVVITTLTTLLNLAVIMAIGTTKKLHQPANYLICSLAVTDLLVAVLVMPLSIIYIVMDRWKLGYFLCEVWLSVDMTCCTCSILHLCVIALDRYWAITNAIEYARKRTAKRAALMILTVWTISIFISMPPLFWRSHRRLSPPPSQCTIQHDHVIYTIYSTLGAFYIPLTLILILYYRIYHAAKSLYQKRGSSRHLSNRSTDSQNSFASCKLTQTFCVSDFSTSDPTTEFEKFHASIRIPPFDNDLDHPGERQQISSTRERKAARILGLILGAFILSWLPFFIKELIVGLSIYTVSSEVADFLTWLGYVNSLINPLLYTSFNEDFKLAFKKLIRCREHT

Ki (human 5-HT7 receptor): 2510 nM
first-phase affinity lower than affinity for the 5-HT2B receptor subtype [2]: more than 10 fold
second-phase affinity greater than affinity for 5-HT1B, 5-HT1E, 5-HT2A and 5-HT2C subtypes ([3]; bladder pKB versus published values): at least 10 fold
Kb ([3]; inhibition of the second phase of the concentration-effect curve to 5-CT in the rat bladder, read-out: pKB (converted)): 15.8 nM
SMILES: COC(=O)[C@H]1[C@H]2C[C@H]3c4[nH]c5ccccc5c4CCN3C[C@H]2CC[C@@H]1O [rauwolscine]
pKB, 5-HT1E (5-HT1E): 5.5
pKB, 5-HT2B ([1]; Wainscott et al., 1993): 7.5
pK1 ([1]; cloned rat 5-HT2B receptor, reference 1 (Wainscott et al., 1993)): 7.5-7.6
